Measured values as given in patent US9550763B2, “Heterocyclic ring and carbocyclic derivative” (Shionogi & Co., Ltd., priority 2012, dated 2017).

target: human P2X3 receptor (Homo sapiens (Human), UniProt P56373); assay: Evaluation of human P2X3 receptor inhibitory activity (Test Example 1-1, FDSS 3000, 96-well, 50 nM ATP); assay type: cell-based; settings: human P2X3 receptor in C6BU-1 cells; Test Example 1-1 (compounds I-001 to I-300)
Method in brief: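 C6BU-1 cells stably expressing human P2X3, loaded with 4 μM Fluo-3-AM (pH 7.5), preincubated 5 min with compound before 50 nM ATP challenge; fluorescence followed 4 min on FDSS 3000. IC50 derived from peak/baseline fluorescence ratio, no-compound as 0% and buffer-instead-of-ATP as 100% inhibition.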

Sequence of human P2X3 receptor (P56373 whole entry): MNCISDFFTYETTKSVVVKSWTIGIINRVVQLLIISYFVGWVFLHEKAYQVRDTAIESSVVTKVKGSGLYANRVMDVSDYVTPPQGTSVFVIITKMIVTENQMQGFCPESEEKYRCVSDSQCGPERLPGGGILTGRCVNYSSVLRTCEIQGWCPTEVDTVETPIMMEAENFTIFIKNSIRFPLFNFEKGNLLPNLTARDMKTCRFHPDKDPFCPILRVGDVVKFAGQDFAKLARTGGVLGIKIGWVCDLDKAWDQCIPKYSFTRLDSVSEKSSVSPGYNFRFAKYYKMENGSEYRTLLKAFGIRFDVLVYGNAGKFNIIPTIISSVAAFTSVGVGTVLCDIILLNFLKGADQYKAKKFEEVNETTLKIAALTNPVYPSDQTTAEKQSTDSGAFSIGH

Q: How did the IC50 turn out when CCOC(=O)c1cnc(Nc2ccc(Oc3ncc(C(=O)O)s3)cc2)n(Cc2ccc(Cl)cc2)c1=O [Compound I-059] was run?
A: 0.006 µM

Q: CCC(=O)Nc1c[nH]/c(=N\c2ccc(Oc3ccnc(C#N)c3)cc2)n(Cc2ccc(Cl)cn2)c1=O [Compound I-276] was tested. Which IC50 did it give?
A: 0.165 µM

Q: Which IC50 does the source give for CCCn1c(=O)cc(Nc2ccc(Oc3cccc(C(=O)O)n3)c(C)n2)n(Cc2ccc(Cl)cc2)c1=O [Compound I-188] here?
A: 0.006 µM

Q: O=C(Nc1c[nH]/c(=N\c2ccc(Oc3ccon3)cc2)n(Cc2ccc(F)cc2)c1=O)C1CCOCC1 [Compound I-123] was tested. Which IC50 did it give?
A: 0.024 µM

Q: How did the IC50 turn out when C[C@@H](Cn1c(=O)cc(Nc2ccc(Oc3ccon3)cc2)n(Cc2ccc(Cl)cc2)c1=O)C(=O)O [Compound I-121] was run?
A: 0.026 µM

Q: CCn1c(=O)cc(Nc2ccc(Oc3cccc(C(N)=O)n3)c(F)c2)n(Cc2ccc(Cl)cc2)c1=O [Compound I-026] was tested. Which IC50 did it give?
A: 0.003 µM

Q: With CCn1c(=O)cc(Nc2ccc(Oc3cccc(C#N)n3)c(C)c2)n(Cc2ccc(Cl)cc2)c1=O [Compound I-012] as the compound, how does the IC50 read?
A: 0.002 µM

Q: How did the IC50 turn out when NC(=O)c1cccc(Oc2ccc(/N=c3\[nH]cc(C(N)=O)c(=O)n3Cc3ccc(Cl)cc3)cc2)n1 [Compound I-178] was run?
A: 0.014 µM

Q: For CCn1c(=O)cc(Nc2ccc(Oc3cccc(C(N)=O)n3)cc2)n(Cc2ccc(Cl)cc2)c1=O [Compound I-025], which IC50 is on record?
A: 0.006 µM

Q: How did the IC50 turn out when CCc1oc2ccc(Nc3ncc(NC(=O)C4CCOCC4)c(=O)n3Cc3ccc(Cl)cc3)cc2c1C [Compound I-077] was run?
A: 0.191 µM

Q: With CC(=O)Nc1cnc(Nc2ccc(Oc3cccc(F)n3)cc2)n(Cc2ccc(Cl)cc2)c1=O [Compound I-070] as the compound, how does the IC50 read?
A: 0.028 µM

Q: For C[C@@H](Cn1c(=O)cc(Nc2ccc(Oc3ccccc3)cc2)n(Cc2ccc(Cl)cc2)c1=O)C(=O)O [Compound I-117], which IC50 is on record?
A: 0.026 µM

Q: How did the IC50 turn out when O=C(O)c1c[nH]/c(=N\c2ccc(Oc3cccc(F)n3)cc2)n(Cc2ccc(Cl)cc2)c1=O [Compound I-029] was run?
A: 0.236 µM

Q: O=C(NCCO)c1c[nH]/c(=N\c2ccc(Oc3ncccc3F)cc2)n(Cc2ccc(Cl)cc2)c1=O [Compound I-111] was tested. Which IC50 did it give?
A: 0.022 µM

Q: With CCc1oc2ccc(/N=c3\[nH]cc(CO)c(=O)n3Cc3ccc(Cl)cc3)cc2c1C [Compound I-046] as the compound, how does the IC50 read?
A: 0.278 µM

Q: With CCc1c[nH]/c(=N\c2ccc(Oc3cncc(C(=O)O)c3)cc2)n(Cc2ccc(Cl)cc2)c1=O [Compound I-170] as the compound, how does the IC50 read?
A: 0.054 µM

Q: With CC(=O)N(C)c1c[nH]/c(=N\c2ccc(Oc3cccc(C#N)n3)cc2)n(Cc2ccc(Cl)cc2)c1=O [Compound I-197] as the compound, how does the IC50 read?
A: 0.045 µM

Q: For CCc1oc2ccc(Nc3nc(=O)c(C(=O)NC4CCOCC4)cn3Cc3ccc(Cl)cc3)cc2c1C [Compound I-021], which IC50 is on record?
A: 0.02 µM

Q: For COC(=O)[C@@H](C)Cn1c(=O)cc(Nc2ccc(Oc3cccc(F)c3)c(C)n2)n(Cc2ccc(Cl)cc2)c1=O [Compound I-244], which IC50 is on record?
A: 0.646 µM

Q: Which IC50 does the source give for CCOC(=O)c1c[nH]/c(=N\c2ccc(Oc3ccc(F)cn3)c(F)c2)n(Cc2ccc(Cl)cc2)c1=O [Compound I-206] here?
A: 0.048 µM

Q: Which IC50 does the source give for CCC(=O)Nc1c[nH]/c(=N\c2ccc(Oc3cccc(C#N)n3)cc2)n(Cc2ccc(Cl)cc2)c1=O [Compound I-006] here?
A: 0.005 µM

Q: For C=C(C)c1c[nH]/c(=N\c2ccc(Oc3cccc(C#N)n3)cc2)n(Cc2ccc(Cl)cc2)c1=O [Compound I-147], which IC50 is on record?
A: 0.112 µM

Q: Which IC50 does the source give for CCOC(=O)c1cnc(Nc2ccc(Oc3cccc(C(=O)OC)n3)cc2)n(Cc2ccc(Cl)cc2)c1=O [Compound I-051] here?
A: 0.027 µM

Q: With CCn1c(=O)cc(Nc2ccc(Oc3cccc(C(=O)O)c3)cc2)n(Cc2ccc(Cl)cc2)c1=O [Compound I-023, 1-(4-chlorobenzyl)-3-ethyl-6-[4-(3-hydroxycarbonylphenoxy)phenylamino]pyrimidin-2,4(1H,3H)-dione] as the compound, how does the IC50 read?
A: 0.003 µM

Q: NC(=O)c1ccc(Oc2ccc(Nc3nc(=O)c(C(=O)NC4CCOCC4)cn3Cc3ccc(Cl)cc3)cc2)cn1 [Compound I-200] was tested. Which IC50 did it give?
A: 0.01 µM

Q: Which IC50 does the source give for CCC(=O)Nc1c[nH]/c(=N\c2ccc(Oc3ccc(C(=O)OC)nc3)cc2)n(Cc2ccc(Cl)cc2)c1=O [Compound I-091] here?
A: 0.003 µM

Q: With CCOC(=O)c1c[nH]/c(=N\c2ccc(Oc3ccc(C)nn3)cc2)n(Cc2ccc(Cl)cc2)c1=O [Compound I-177] as the compound, how does the IC50 read?
A: 0.014 µM

Q: For COC(=O)[C@@H](C)Cn1c(=O)cc(Nc2ccc(Oc3ncccc3F)cc2)n(Cc2ccc(Cl)cc2)c1=O [Compound I-115], which IC50 is on record?
A: 0.009 µM

Q: How did the IC50 turn out when CCc1oc2ccc(Nc3ncc(NC(=O)C4CCOCC4)c(=O)n3Cc3cccc(Cl)c3)cc2c1C [Compound I-078] was run?
A: 0.02 µM

Q: With Cc1ccc(Oc2ccc(/N=c3\[nH]cc(C(=O)O)c(=O)n3Cc3ccc(Cl)cc3)cc2)nn1 [Compound I-179] as the compound, how does the IC50 read?
A: 0.359 µM

Q: For CCn1c(=O)cc(Nc2ccc(Oc3ncc(C(N)=O)s3)cc2)n(Cc2ccc(Cl)cc2)c1=O [Compound I-039], which IC50 is on record?
A: < 0.004 µM

Q: How did the IC50 turn out when CNC(=O)c1c[nH]/c(=N\c2ccc(Oc3nc(C)ns3)cc2)n(Cc2ccc(Cl)cc2)c1=O [Compound I-257] was run?
A: 0.041 µM

Q: For CN(C)C(=O)CNC(=O)c1cn(Cc2ccc(Cl)cc2)c(Nc2ccc(Oc3ccc(F)cn3)cc2)nc1=O [Compound I-297], which IC50 is on record?
A: 0.021 µM

Q: Which IC50 does the source give for CN(C(=O)C1CCOCC1)c1c[nH]/c(=N\c2ccc(Oc3ccon3)cc2)n(Cc2ccc(Cl)cc2)c1=O [Compound I-109] here?
A: 0.034 µM

Q: O=C(Nc1cnc(Nc2ccc(Oc3ncccc3F)cc2)n(Cc2ccc(Cl)cc2)c1=O)C1CCOCC1 [Compound I-132] was tested. Which IC50 did it give?
A: 0.002 µM

Q: With O=C(NC1CCOCC1)c1cn(Cc2ccc(Cl)cc2)c(Nc2ccc(Oc3ncccc3F)cc2)nc1=O [Compound I-155] as the compound, how does the IC50 read?
A: 0.017 µM

Q: Which IC50 does the source give for O=C(NC1CCOCC1)c1cn(Cc2ccc(Cl)cc2)c(Nc2ccc(Oc3ccncc3)cc2)nc1=O [Compound I-199] here?
A: 0.008 µM

Q: How did the IC50 turn out when O=C(O)c1c[nH]/c(=N\c2ccc(Oc3ccc(F)cn3)cc2)n(Cc2ccc(Cl)cc2)c1=O [Compound I-141] was run?
A: 0.467 µM

Q: CCC(=O)N(C)C1=CN/C(=N\c2ccc(Oc3cccc(C(=O)O)n3)cc2)N(Cc2ccc(Cl)cc2)C1 [Compound I-241] was tested. Which IC50 did it give?
A: 0.008 µM

Q: COc1cccc(Oc2ccc(/N=c3\[nH]cc(C(N)=O)c(=O)n3Cc3ccc(Cl)cc3)cc2C)n1 [Compound I-140] was tested. Which IC50 did it give?
A: 0.099 µM

Q: Which IC50 does the source give for CCn1c(=O)cc(Nc2cnc(Oc3cccc(C(N)=O)c3)cn2)n(Cc2ccc(Cl)cc2)c1=O [Compound I-076] here?
A: 0.432 µM

Q: COC(=O)[C@@H](C)Cn1c(=O)cc(Nc2ccc(Oc3cccc(C#N)n3)c(F)c2)n(Cc2ccc(Cl)cc2)c1=O [Compound I-122] was tested. Which IC50 did it give?
A: 0.003 µM

Q: For C[C@@H](Cn1c(=O)cc(Nc2ccc(Oc3cccc(C#N)n3)c(F)c2)n(Cc2ccc(Cl)cc2)c1=O)C(=O)O [Compound I-127], which IC50 is on record?
A: 0.003 µM

Q: CCc1oc2ccc(/N=c3\[nH]cc(CC(N)=O)c(=O)n3Cc3ccc(Cl)cc3)cc2c1C [Compound I-084] was tested. Which IC50 did it give?
A: 0.103 µM

Q: CCc1oc2ccc(/N=c3\[nH]cc(NC(=O)C4CCOCC4)c(=O)n3Cc3ccc(Cl)cc3)cc2c1C [Compound I-030, 1-(4-chlorobenzyl)-2-(2-ethyl-3-methylbenzofuran-5-ylamino)-5-(tetrahydro-2H-pyran-4-ylcarbonylamino)pyrimidin-6(1H)-one] was tested. Which IC50 did it give?
A: 0.005 µM

Q: For CCC(=O)Nc1c[nH]/c(=N\c2ccc(Oc3ccnc(C(=O)OC)c3)cc2)n(Cc2ccc(Cl)cc2)c1=O [Compound I-098], which IC50 is on record?
A: 0.011 µM

Q: With Cc1cnc(-c2c[nH]/c(=N\c3ccc(Oc4ccon4)cc3)n(Cc3ccc(Cl)cc3)c2=O)o1 [Compound I-294] as the compound, how does the IC50 read?
A: 0.084 µM

Q: How did the IC50 turn out when CN(C)C(=O)CNC(=O)c1cn(Cc2ccc(Cl)cc2)c(Nc2ccc(Oc3cccc(F)n3)cc2)nc1=O [Compound I-299] was run?
A: 0.018 µM

Q: With CCn1c(=O)cc(Nc2ccc(Oc3ccc(C(=O)O)cc3)nc2)n(Cc2ccc(Cl)cc2)c1=O [Compound I-063] as the compound, how does the IC50 read?
A: 0.422 µM

Q: Which IC50 does the source give for NC(=O)c1c[nH]/c(=N\c2ccc(Oc3ccon3)cc2)n(Cc2ccc(Cl)cc2)c1=O [Compound I-100] here?
A: 0.032 µM

Q: O=C(O)c1c[nH]/c(=N\c2ccc(Oc3ccon3)cc2)n(Cc2ccc(Cl)cc2)c1=O [Compound I-099] was tested. Which IC50 did it give?
A: 0.534 µM

Q: Which IC50 does the source give for O=c1c(NC(=O)[C@H]2C[C@@H](F)C2)c[nH]/c(=N\c2ccc(Oc3ccon3)cc2)n1Cc1ccc(Cl)cc1 [Compound I-219] here?
A: 0.014 µM

Q: O=C(NC1CCOCC1)c1cn(Cc2ccccc2F)c(Nc2ccc(Oc3cccc(F)n3)cc2)nc1=O [Compound I-284] was tested. Which IC50 did it give?
A: 0.042 µM

Q: O=c1c(-c2ccccn2)c[nH]/c(=N\c2ccc(Oc3ccon3)cc2)n1Cc1ccc(Cl)cc1 [Compound I-272] was tested. Which IC50 did it give?
A: 0.211 µM

Q: Cc1cc(C(=O)Nc2c[nH]/c(=N\c3ccc(Oc4ccon4)cc3)n(Cc3ccc(Cl)cc3)c2=O)on1 [Compound I-255] was tested. Which IC50 did it give?
A: 0.147 µM

Q: For CCCn1c(=O)cc(Nc2ccc(Oc3cccc(C(=O)O)c3)cn2)n(Cc2ccc(Cl)cc2)c1=O [Compound I-167], which IC50 is on record?
A: 0.035 µM

Q: With CCC(=O)Nc1c[nH]/c(=N\c2ccc(Oc3ccc(CO)nc3)cc2)n(Cc2ccc(Cl)cc2)c1=O [Compound I-118] as the compound, how does the IC50 read?
A: 0.017 µM

Q: How did the IC50 turn out when O=C(Nc1cnc(Nc2ccc(Oc3nccs3)cc2)n(Cc2ccc(Cl)cc2)c1=O)C1CCOCC1 [Compound I-131] was run?
A: 0.002 µM

Q: How did the IC50 turn out when O=c1c(-c2ccc(O)nc2)c[nH]/c(=N\c2ccc(Oc3ccon3)cc2)n1Cc1ccc(Cl)cc1 [Compound I-205] was run?
A: 0.153 µM

Q: For CCc1cn(Cc2ccc(Cl)cc2)c(Nc2ccc(Oc3ncc(C(=O)O)s3)cc2)nc1=O [Compound I-154], which IC50 is on record?
A: 0.317 µM

Q: With O=c1c(-c2ccncc2)c[nH]/c(=N\c2ccc(Oc3ccon3)cc2)n1Cc1ccc(Cl)cc1 [Compound I-274] as the compound, how does the IC50 read?
A: 0.356 µM

Q: How did the IC50 turn out when CN(C)C(=O)c1c[nH]/c(=N\c2ccc(Oc3cccc(C(N)=O)n3)cc2)n(Cc2ccc(Cl)cc2)c1=O [Compound I-220] was run?
A: 0.178 µM

Q: Which IC50 does the source give for CCOC(=O)Cc1c[nH]/c(=N\c2ccc3oc(CC)c(C)c3c2)n(Cc2ccc(Cl)cc2)c1=O [Compound I-072] here?
A: 0.228 µM

Q: How did the IC50 turn out when CCC(=O)Nc1c[nH]/c(=N\c2ccc(Oc3ccnc(C(=O)OC)c3)cc2)n(Cc2ccc(Cl)cn2)c1=O [Compound I-287] was run?
A: 0.356 µM

Q: CCC(=O)Nc1c[nH]/c(=N\c2ccc(Oc3cnc(C(N)=O)cn3)cc2)n(Cc2ccc(Cl)cc2)c1=O [Compound I-097] was tested. Which IC50 did it give?
A: 0.005 µM
